≈ marks a conversion by molar mass, not a printed value.
Legend:
Candida albicans [1] = assay: Antifungal activity against Candida albicans after 24 hrs by microbroth dilution method; type: functional
Candida albicans [2] = assay: Antibiofilm activity against 48 hrs old pre-formed biofilms of Candida albicans ATCC 10231 at 128 ug/ml after 24 hrs by MTS assay relative to control; type: functional
Candida parapsilosis = assay: Antifungal activity against Candida parapsilosis ATCC 22019 after 24 hrs by microbroth dilution method; type: functional; conditions: Lodderomyces parapsilosis, ATCC 22019, 24 h
Cryptococcus neoformans [3] = assay: Antifungal activity against Cryptococcus neoformans NR-41297 after 24 hrs by microbroth dilution method; type: functional; conditions: NR-41297, 24 h
Nakaseomyces glabratus = assay: Antifungal activity against Candida glabrata ATCC 90030 after 24 hrs by microbroth dilution method; type: functional; conditions: ATCC 90030, 24 h
Candida albicans [4] = assay: Antifungal activity against Candida albicans NR-29439 after 24 hrs by microbroth dilution method; type: functional; conditions: NR-29439, 24 h
Candida albicans [5] = assay: Antifungal activity against Candida albicans NR-29444 after 24 hrs by microbroth dilution method; type: functional; conditions: NR-29444, 24 h
Cryptococcus neoformans [6] = assay: Antifungal activity against Cryptococcus neoformans NR-41294 after 24 hrs by microbroth dilution method; type: functional; conditions: NR-41294, 24 h
Candida albicans [7] = assay: Antifungal activity against Candida albicans ATCC 10231 after 24 hrs by microbroth dilution method; type: functional; conditions: ATCC 10231, 24 h
Candida albicans [8] = assay: Antifungal activity against Candida albicans NR-29435 after 24 hrs by microbroth dilution method; type: functional; conditions: NR-29435, 24 h
Cryptococcus neoformans [9] = assay: Antifungal activity against Cryptococcus neoformans NR-41299 after 24 hrs by microbroth dilution method; type: functional; conditions: NR-41299, 24 h
Cryptococcus neoformans [10] = assay: Antifungal activity against Cryptococcus neoformans NR-41298 after 24 hrs by microbroth dilution method; type: functional; conditions: NR-41298, 24 h
Candida albicans [11] = assay: Antifungal activity against Candida albicans […] after 24 hrs by microbroth dilution method; type: functional
Candida albicans [12] = assay: Antifungal activity against Candida albicans NR-29438 after 24 hrs by microbroth dilution method; type: functional; conditions: NR-29438, 24 h
Candida albicans [13] = assay: Antibiofilm activity against 48 hrs old pre-formed biofilms of Candida albicans ATCC 10231 at 16 ug/ml after 24 hrs by MTS assay relative to control; type: functional
Cryptococcus neoformans [14] = assay: Antifungal activity against Cryptococcus neoformans NR-41296 after 24 hrs by microbroth dilution method; type: functional; conditions: NR-41296, 24 h
Candida albicans [15] = assay: Antifungal activity against Candida albicans NR-29437 after 24 hrs by microbroth dilution method; type: functional; conditions: NR-29437, 24 h
Cryptococcus neoformans [16] = assay: Antifungal activity against Cryptococcus neoformans NR-41295 after 24 hrs by microbroth dilution method; type: functional; conditions: NR-41295, 24 h
Cryptococcus neoformans [17] = assay: Antifungal activity against Cryptococcus neoformans NR-41292 after 24 hrs by microbroth dilution method; type: functional; conditions: NR-41292, 24 h
Cryptococcus neoformans [18] = assay: Antifungal activity against Cryptococcus neoformans NR-41291 after 24 hrs by microbroth dilution method; type: functional; conditions: NR-41291, 24 h
Candida albicans [19] = assay: Antifungal activity against Candida albicans NR-29449 after 24 hrs by microbroth dilution method; type: functional; conditions: NR-29449, 24 h
Candida albicans [20] = assay: Antifungal activity against Candida albicans NR-29448 after 24 hrs by microbroth dilution method; type: functional; conditions: NR-29448, 24 h
Candida albicans [21] = assay: Antifungal activity against Candida albicans NR-29446 after 24 hrs by microbroth dilution method; type: functional; conditions: NR-29446, 24 h
Candida albicans [22] = assay: Antifungal activity against Candida albicans NR-29367 after 24 hrs by microbroth dilution method; type: functional; conditions: NR-29367, 24 h
Candida albicans [23] = assay: Antifungal activity against Candida albicans NR-29440 after 24 hrs by microbroth dilution method; type: functional; conditions: NR-29440, 24 h
Candida albicans [24] = assay: Antifungal activity against Candida albicans NR-29434 after 24 hrs by microbroth dilution method; type: functional; conditions: NR-29434, 24 h
Candida albicans [25] = assay: Antifungal activity against Candida albicans NR-29442 after 24 hrs by microbroth dilution method; type: functional; conditions: NR-29442, 24 h
Candida albicans [26] = assay: Antifungal activity against Candida albicans NR-29441 after 24 hrs by microbroth dilution method; type: functional; conditions: NR-29441, 24 h
Candida albicans [27] = assay: Antifungal activity against Candida albicans NR-29366 after 24 hrs by microbroth dilution method; type: functional; conditions: NR-29366, 24 h
HCT-116 [28] = assay: Cytotoxicity against human HCT116 cells assessed as reduction in cell viability at 32 to 128 ug/ml after 24 hrs by MTS assay; type: cell-based; conditions: hct-116, 24 h
HCT-116 [29] = assay: Cytotoxicity against human HCT116 cells assessed as reduction in cell viability up to 4 ug/ml after 24 hrs by MTS assay; type: cell-based; conditions: hct-116, 24 h
Candida albicans [30] = assay: Antibiofilm activity against 48 hrs old pre-formed biofilms of Candida albicans ATCC 10231 at 32 ug/ml after 24 hrs by MTS assay relative to control; type: functional

Clc1cccc2cc3c(nc12)-c1nc2ccccc2n1C3
MIC (Candida albicans [1]): 64 µg/mL (≈ 219 µM)

COc1cccc2cc3c(nc12)-c1nc2ccccc2n1C3
MIC (Candida albicans [1]): 64 µg/mL (≈ 223 µM)

Cc1ccc2nc3c(cc2c1)Cn1c-3nc2ccccc21
MIC (Candida albicans [1]): 32 µg/mL (≈ 118 µM)

Cc1cccc2cc3c(nc12)-c1nc2ccccc2n1C3
MIC (Candida albicans [1]): 16 µg/mL (≈ 59 µM)

COc1ccc2nc3c(cc2c1)Cn1c-3nc2ccccc21
MIC (Candida albicans [1]): 16 µg/mL (≈ 55.7 µM)

COc1ccc2cc3c(nc2c1)-c1nc2ccccc2n1C3
MIC (Candida albicans [1]): > 64 µg/mL

Cc1ccc2cc3c(nc2c1)-c1nc2ccccc2n1C3
MIC (Candida albicans [1]): 32 µg/mL (≈ 118 µM)

OC(Cn1cncn1)(Cn1cncn1)c1ccc(F)cc1F [FLUCONAZOLE]
Activity (Candida albicans [2]): 40%
MIC (Candida parapsilosis): 0.25 µg/mL (≈ 0.816 µM)
MIC (Cryptococcus neoformans [3]): 0.5 µg/mL (≈ 1.63 µM)
MIC (Nakaseomyces glabratus): 1 µg/mL (≈ 3.27 µM)
MIC (Candida albicans [4]): > 64 µg/mL
MIC (Candida albicans [5]): 2 µg/mL (≈ 6.53 µM)
MIC (Cryptococcus neoformans [6]): 2 µg/mL (≈ 6.53 µM)
MIC (Candida albicans [7]): 1 µg/mL (≈ 3.27 µM)
MIC (Candida albicans [8]): 0.25 µg/mL (≈ 0.816 µM)
MIC (Cryptococcus neoformans [9]): 2 µg/mL (≈ 6.53 µM)
MIC (Cryptococcus neoformans [10]): 4 µg/mL (≈ 13.1 µM)
MIC (Candida albicans [11]): 2 µg/mL (≈ 6.53 µM)
MIC (Candida albicans [12]): 0.5 µg/mL (≈ 1.63 µM)
Activity (Candida albicans [13]): 25%
MIC (Cryptococcus neoformans [14]): 1 µg/mL (≈ 3.27 µM)
MIC (Candida albicans [15]): 2 µg/mL (≈ 6.53 µM)
MIC (Cryptococcus neoformans [16]): 2 µg/mL (≈ 6.53 µM)
MIC (Cryptococcus neoformans [17]): 1 µg/mL (≈ 3.27 µM)
MIC (Cryptococcus neoformans [18]): 1 µg/mL (≈ 3.27 µM)
MIC (Candida albicans [19]): 0.5 µg/mL (≈ 1.63 µM)
MIC (Candida albicans [20]): > 64 µg/mL
MIC (Candida albicans [21]): > 64 µg/mL
MIC (Candida albicans [22]): > 64 µg/mL
MIC (Candida albicans [23]): 2 µg/mL (≈ 6.53 µM)
MIC (Candida albicans [24]): 0.5 µg/mL (≈ 1.63 µM)
MIC (Candida albicans [25]): 16 µg/mL (≈ 52.2 µM)
MIC (Candida albicans [26]): 4 µg/mL (≈ 13.1 µM)
MIC (Candida albicans [27]): > 64 µg/mL

Brc1cccc2cc3c(nc12)-c1nc2ccccc2n1C3
MIC (Candida albicans [1]): > 64 µg/mL

c1ccc2nc3c(cc2c1)Cn1c-3nc2ccccc21
Activity (HCT-116 [28]): 25%
MIC (Candida albicans [1]): 0.5 µg/mL (≈ 1.94 µM)
Activity (Candida albicans [2]): 60%
MIC (Candida parapsilosis): 1 µg/mL (≈ 3.89 µM)
MIC (Cryptococcus neoformans [3]): 0.5 µg/mL (≈ 1.94 µM)
MIC (Nakaseomyces glabratus): 1 µg/mL (≈ 3.89 µM)
MIC (Candida albicans [4]): 0.5 µg/mL (≈ 1.94 µM)
MIC (Candida albicans [5]): 0.25 µg/mL (≈ 0.972 µM)
MIC (Cryptococcus neoformans [6]): 1 µg/mL (≈ 3.89 µM)
MIC (Candida albicans [7]): 0.5 µg/mL (≈ 1.94 µM)
MIC (Candida albicans [8]): 0.5 µg/mL (≈ 1.94 µM)
MIC (Cryptococcus neoformans [9]): 2 µg/mL (≈ 7.77 µM)
MIC (Cryptococcus neoformans [10]): 2 µg/mL (≈ 7.77 µM)
MIC (Candida albicans [11]): 0.0625 µg/mL (≈ 0.243 µM)
MIC (Candida albicans [12]): 0.25 µg/mL (≈ 0.972 µM)
Activity (Candida albicans [13]): 25%
MIC (Cryptococcus neoformans [14]): 1 µg/mL (≈ 3.89 µM)
MIC (Candida albicans [15]): 0.0625 µg/mL (≈ 0.243 µM)
MIC (Cryptococcus neoformans [16]): 2 µg/mL (≈ 7.77 µM)
MIC (Cryptococcus neoformans [17]): 0.5 µg/mL (≈ 1.94 µM)
MIC (Cryptococcus neoformans [18]): 1 µg/mL (≈ 3.89 µM)
Activity (HCT-116 [29]): Non-Toxic
MIC (Candida albicans [19]): 0.0625 µg/mL (≈ 0.243 µM)
MIC (Candida albicans [20]): 0.25 µg/mL (≈ 0.972 µM)
MIC (Candida albicans [21]): 0.5 µg/mL (≈ 1.94 µM)
MIC (Candida albicans [22]): 0.5 µg/mL (≈ 1.94 µM)
MIC (Candida albicans [23]): 0.5 µg/mL (≈ 1.94 µM)
MIC (Candida albicans [24]): 0.25 µg/mL (≈ 0.972 µM)
MIC (Candida albicans [25]): 0.5 µg/mL (≈ 1.94 µM)
MIC (Candida albicans [26]): 0.5 µg/mL (≈ 1.94 µM)
MIC (Candida albicans [27]): 0.5 µg/mL (≈ 1.94 µM)
Activity (Candida albicans [30]): 40%

Reference: ChEMBL document CHEMBL4422645, “Benzimidazole tethered pyrrolo[3,4-b]quinoline with broad-spectrum activity against fungal pathogens” (Bioorg Med Chem Lett, 2019)
